Laboratory results taken from PubChem BioAssay (NCI).
“And” between values parts separate entries of the source, which are not always exact repeats. Equal values may be shown once.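 Protocol summary: plate cells (96-well), add compound at 5 concentrations, incubate 48 h, interpolate endpoints linearly. Here, GI50 denotes the concentration required for 50% inhibition of growth. TGI: concentration producing complete growth inhibition.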

The compounds below were run on MDA-MB-468 breast (assay: NCI anticancer screen, dose series, 48 h).
CS(=O)(=O)Nc1cccc(-c2cc(-c3ccccc3Cl)c(C#N)c(N)n2)c1 was tested, and the GI50 was 1.19 µM and the TGI was 7.75 µM.
In the case of CCC(=C(c1ccc(OCCN(C)C)cc1)c1ccc(OCCN(C)C)cc1)c1ccc(Cl)cc1, the GI50 was 2.95 µM and the TGI was 6.7 µM.
For O=C(O)CCC/C=C\C[C@H]1C=CC(=O)/C1=C/C[C@@H](O)CCc1cccc(C(F)(F)F)c1, the GI50 was 1.24 µM and the TGI was 3.27 µM.
In the case of O=C(/C=C/C=C/c1c(C2CC2)nc2ccccc2c1-c1ccc(F)cc1)c1cccs1, the GI50 was 2.75 µM and the TGI was over 100 µM.
For Oc1cccc2ccc(-c3nnc(SCc4ccc(O)c5ncccc45)n3-c3ccccc3)nc12, the GI50 was 0.813 µM and the TGI was 9.52 µM.
In the case of Cc1cc(Nc2c3ccccc3nc3ccccc23)ccc1NS(C)(=O)=O, the GI50 was 2.29 µM and the TGI was 8.81 µM.
For CN1CCN(c2ccc(Nc3nc(N)c(C(=O)c4ccc5c(c4)OCCO5)s3)cc2)CC1, the GI50 was 5.56 µM and the TGI was over 17.6 µM.
N#CSc1c[nH]c2ccc(/C=C/C(=O)/C=C(/C=C/c3ccc4[nH]cc(SC#N)c4c3)OB(F)F)cc12 showed a GI50 of 0.91 µM and a TGI of 4.09 µM.
Work on CN1CCN(c2cc(C(=O)Nc3cc4cc(-c5cnn(C)c5)ccc4cn3)ccn2)CC1 yielded a GI50 of 0.0348 µM and a TGI of 0.286 µM.
Nc1ccccc1NC(=O)c1ccc(CCCC(=O)Nc2ccc(C3CC3N)cc2)cc1 (stereo unspecified) showed a GI50 of 1.62 µM and a TGI of 4.53 µM.
In the case of COc1cc(Nc2ncc(F)c(Nc3ccc4c(n3)NC(=O)C(C)(C)O4)n2)cc(OC)c1OC, the GI50 was 8.5 µM and 4.91 µM and the TGI was over 100 µM.
O=c1c(O)cccc2cc(O)c(O)c(O)c12 was tested, and the GI50 was 47.6 µM and the TGI was over 100 µM.
CC(C)CC(=O)Nc1n[nH]c2c1CN(C(=O)C1CCN(C)CC1)C2(C)C was tested, and the GI50 was 1.13 µM and the TGI was 5.18 µM.
C[C@@H]1Cc2c([nH]c3ccccc23)[C@@H](c2c(F)cc(NC3CN(CCCF)C3)cc2F)N1CC(F)(F)CO showed a GI50 of 1.95 µM and a TGI of 4.86 µM.
CC(=O)N1c2ccccc2NC2=C(C(=O)N(Cc3ccccc3)C2(C)C)C1c1ccco1 (stereo unspecified) showed a GI50 of 0.0897 µM and a TGI of over 25 µM.
In the case of CN(C)c1ncc(-c2ccc(C(F)(F)F)cc2)c(NC2CCCCCC2)n1, the GI50 was 14.3 µM and the TGI was 37.1 µM.
In the case of COc1cc(OC)c(/C=C/S(=O)(=O)Cc2ccc(OC)c(NC(=O)CCC(=O)NO)c2)c(OC)c1, the GI50 was 0.0549 µM and the TGI was over 100 µM.
Work on CN(C)C/C=C/C(=O)Nc1cc2c(Nc3ccc(F)c(Cl)c3F)ncnc2cc1OCCOC(F)F yielded a GI50 of under 0.01 µM.
Fc1ccc(-c2ncn(C3CCNCC3)c2-c2ccnc(Oc3ccc(F)c(F)c3)n2)cc1 was tested, and the GI50 was 2.34 µM and the TGI was 5.86 µM.
N#CC(C#N)N=Nc1ccc(Br)cc1 showed a GI50 of 1.01 µM and a TGI of 5.1 µM.
In the case of CCCCCCCCCCCCCCCC[N+](C)(CCO)Cc1cnc[nH]1 (stereo unspecified), the GI50 was 0.396 µM and the TGI was 10.1 µM.
For Cc1cc2cn3c4ccc(O)cc4[nH]c(=O)c3c2cc1C, the GI50 was 0.178 µM and the TGI was 0.772 µM.
In the case of CCN(CC)c1ccc2c(c1)Oc1nc(N)c(C#N)c(N)c1C2Sc1ccc(OC)cc1 (stereo unspecified), the GI50 was 1.85 µM and the TGI was 3.51 µM.
Work on Cc1nccc2c3ccc(OCc4cn(-c5ccc(Cl)cc5)nn4)cc3n(CCCc3ccccc3)c12 yielded a GI50 of 6.07 µM and a TGI of 19.1 µM.
CCCCCCCCCc1cc[n+](CC(=O)c2ccc([N+](=O)[O-])cc2)cc1 showed a GI50 of 0.446 µM and a TGI of 1.75 µM.
Work on COC(=O)Nc1nc2ccc(C(=O)c3ccc(N(C)C4COC4)cc3)cc2[nH]1 yielded a GI50 of 0.224 µM and a TGI of over 100 µM.
For Nc1ncnc2c1c(-c1cccc(OCc3ccccc3)c1)cn2C1CC(CN2CCC2)C1 (stereo unspecified), the GI50 was 1.96 µM and 2.14 µM and the TGI was 5.98 µM and 8.79 µM.
Compound COC1=CC(=O)C(OC)=C(OC)C1=O has a GI50 of 1.61 µM and a TGI of 3.16 µM.
CCn1cc(-c2ccnc3[nH]ccc23)c(-c2cccc(NC(=O)Nc3ccc(OCc4ccccc4)cc3)c2)n1 was tested, and the GI50 was 18.2 µM and the TGI was over 25 µM.
CS(=O)(=O)CCNCc1ccc(-c2ccc3ncnc(Nc4ccc(OCc5cccc(F)c5)c(C(F)(F)F)c4)c3c2)o1 was tested, and the GI50 was 1.42 µM and the TGI was 6.09 µM.
With O=[N+]([O-])c1ccccc1NC1c2ccccc2Oc2ccccc21 the GI50 was 2.21 µM and the TGI was 5.4 µM.
For CN1C(=O)[C@@H](NC(=O)[C@H](CCC(F)(F)F)[C@H](CCC(F)(F)F)C(N)=O)N=C(c2ccccc2)c2ccccc21, the GI50 was 21.2 µM and the TGI was over 100 µM.
CCCc1cc2cc(-n3nc(CC)c4c3CC(C)(C)CC4=O)cc(NC3CCC(O)CC3)c2c(=O)[nH]1 (stereo unspecified) gave a GI50 of 0.212 µM and a TGI of over 100 µM.
In the case of O=C(NCCCNc1cc(-c2cn(-c3ccccc3)nc2-c2cccc(O)c2)ccn1)Nc1ccc(F)cc1, the GI50 was 1.18 µM and the TGI was 4.66 µM.
For Cc1cc(O)c(C2=NN(c3ccc(S(N)(=O)=O)cc3)C(c3ccc(N(C)C)cc3)C2)c(C)c1Cl (stereo unspecified), the GI50 was 17.1 µM and the TGI was 33.8 µM.
In the case of Cc1cccc(/C=C/C(=O)Nc2ncc(Cc3cccc(C)c3)s2)c1, the GI50 was 3.77 µM and the TGI was over 100 µM.
